± gives the expanded uncertainty stated by the source.
Assay: xn = mol fraction of the nth substance listed
Conditions: 101 kPa, Liquid; for viscosity: Falling or rolling sphere viscometry; for mass density: Vibrating tube method

CCCC[n+]1ccc(C)cc1.O=S(=O)([N-]S(=O)(=O)C(F)(F)F)C(F)(F)F + CCCC[n+]1ccccc1.F[B-](F)(F)F
Conditions	mass density [kg/m3]	viscosity [mPa·s]
293.15 K, x2 = 0	1416.6 ± 1.7	70.6 ± 1.9
293.15 K, x2 = 0.0575	1409.3 ± 1.7	75.3 ± 2.1
293.15 K, x2 = 0.1136	1401.9 ± 1.7	77.8 ± 2.2
293.15 K, x2 = 0.2311	1385.1 ± 1.7	88.7 ± 2.7
293.15 K, x2 = 0.3515	1366 ± 1.7	101.1 ± 3.3
293.15 K, x2 = 0.4566	1347.8 ± 1.7	115.1 ± 4.1
293.15 K, x2 = 0.5692	1326.2 ± 1.7	135.2 ± 5.3
293.15 K, x2 = 0.673	1304 ± 1.7	153.4 ± 6.5
293.15 K, x2 = 0.7836	1277.5 ± 1.7	171.9 ± 7.8
293.15 K, x2 = 0.889	1249.1 ± 1.7	195 ± 9.5
293.15 K, x2 = 0.9535	1230.2 ± 1.7	216.1 ± 11
303.15 K, x2 = 0	1407.3 ± 1.7	45.2 ± 1.2
303.15 K, x2 = 0.0575	1400.1 ± 1.7	47.3 ± 1.2
303.15 K, x2 = 0.1136	1392.8 ± 1.7	49.3 ± 1.3
303.15 K, x2 = 0.2311	1376.2 ± 1.7	55.5 ± 1.4
303.15 K, x2 = 0.3515	1357.4 ± 1.7	63.3 ± 1.6
303.15 K, x2 = 0.4566	1339.4 ± 1.7	72.7 ± 2
303.15 K, x2 = 0.5692	1318.1 ± 1.7	81.7 ± 2.4
303.15 K, x2 = 0.673	1296.1 ± 1.7	90.6 ± 2.8
303.15 K, x2 = 0.7836	1270 ± 1.7	98.9 ± 3.2
303.15 K, x2 = 0.889	1241.9 ± 1.7	109.6 ± 3.8
303.15 K, x2 = 0.9535	1223.2 ± 1.7	118.8 ± 4.3
313.15 K, x2 = 0	1398.1 ± 1.7	30.6 ± 0.8
313.15 K, x2 = 0.0575	1391 ± 1.7	31.9 ± 0.8
313.15 K, x2 = 0.1136	1383.8 ± 1.7	33 ± 0.8
313.15 K, x2 = 0.2311	1367.4 ± 1.7	37 ± 0.9
313.15 K, x2 = 0.3515	1348.8 ± 1.7	42.3 ± 1.1
313.15 K, x2 = 0.4566	1331.1 ± 1.7	47.2 ± 1.2
313.15 K, x2 = 0.5692	1310 ± 1.7	52.1 ± 1.3
313.15 K, x2 = 0.673	1288.3 ± 1.7	56.6 ± 1.4
313.15 K, x2 = 0.7836	1262.5 ± 1.7	61.3 ± 1.6
313.15 K, x2 = 0.889	1234.7 ± 1.7	66.9 ± 1.8
313.15 K, x2 = 0.9535	1216.2 ± 1.7	72.5 ± 2
323.15 K, x2 = 0	1388.8 ± 1.7	21.8 ± 0.6
323.15 K, x2 = 0.0575	1381.9 ± 1.7	22.6 ± 0.6
323.15 K, x2 = 0.1136	1374.7 ± 1.7	23.5 ± 0.6
323.15 K, x2 = 0.2311	1358.6 ± 1.7	26.4 ± 0.7
323.15 K, x2 = 0.3515	1340.3 ± 1.7	29.6 ± 0.8
323.15 K, x2 = 0.4566	1322.8 ± 1.7	32.4 ± 0.8
323.15 K, x2 = 0.5692	1302 ± 1.7	35.4 ± 0.9
323.15 K, x2 = 0.673	1280.5 ± 1.7	38.2 ± 1
323.15 K, x2 = 0.7836	1255 ± 1.7	41 ± 1
323.15 K, x2 = 0.889	1227.6 ± 1.7	44.1 ± 1.1
323.15 K, x2 = 0.9535	1209.3 ± 1.7	46.5 ± 1.2
333.15 K, x2 = 0	1379.7 ± 1.7	16.1 ± 0.4
333.15 K, x2 = 0.0575	1372.8 ± 1.7	16.8 ± 0.4
333.15 K, x2 = 0.1136	1365.8 ± 1.7	17.5 ± 0.5
333.15 K, x2 = 0.2311	1349.8 ± 1.7	19.5 ± 0.5
333.15 K, x2 = 0.3515	1331.8 ± 1.7	21.6 ± 0.6
333.15 K, x2 = 0.4566	1314.5 ± 1.7	23.3 ± 0.6
333.15 K, x2 = 0.5692	1294 ± 1.7	25.2 ± 0.6
333.15 K, x2 = 0.673	1272.8 ± 1.7	27 ± 0.7
333.15 K, x2 = 0.7836	1247.6 ± 1.7	28.9 ± 0.7
333.15 K, x2 = 0.889	1220.5 ± 1.7	30.8 ± 0.8
333.15 K, x2 = 0.9535	1202.4 ± 1.7	32.2 ± 0.8
343.15 K, x2 = 0	1370.5 ± 1.7	12.3 ± 0.3
343.15 K, x2 = 0.0575	1363.8 ± 1.7	12.8 ± 0.3
343.15 K, x2 = 0.1136	1356.9 ± 1.7	13.3 ± 0.3
343.15 K, x2 = 0.2311	1341.1 ± 1.7	14.6 ± 0.4
343.15 K, x2 = 0.3515	1323.3 ± 1.7	16 ± 0.4
343.15 K, x2 = 0.4566	1306.3 ± 1.7	17.2 ± 0.4
343.15 K, x2 = 0.5692	1286 ± 1.7	18.5 ± 0.5
343.15 K, x2 = 0.673	1265.1 ± 1.7	19.7 ± 0.5
343.15 K, x2 = 0.7836	1240.2 ± 1.7	20.9 ± 0.5
343.15 K, x2 = 0.889	1213.4 ± 1.7	22.1 ± 0.6
343.15 K, x2 = 0.9535	1195.6 ± 1.7	23 ± 0.6
353.15 K, x2 = 0	1361.5 ± 1.7	9.8 ± 0.3
353.15 K, x2 = 0.0575	1354.9 ± 1.7	10.1 ± 0.3
353.15 K, x2 = 0.1136	1348 ± 1.7	10.5 ± 0.3
353.15 K, x2 = 0.2311	1332.5 ± 1.7	11.4 ± 0.3
353.15 K, x2 = 0.3515	1314.9 ± 1.7	12.4 ± 0.3
353.15 K, x2 = 0.4566	1298.1 ± 1.7	13.3 ± 0.3
353.15 K, x2 = 0.5692	1278.1 ± 1.7	14.1 ± 0.4
353.15 K, x2 = 0.673	1257.5 ± 1.7	14.9 ± 0.4
353.15 K, x2 = 0.7836	1232.8 ± 1.7	15.8 ± 0.4
353.15 K, x2 = 0.889	1206.3 ± 1.7	16.6 ± 0.4
353.15 K, x2 = 0.9535	1188.8 ± 1.7	17.2 ± 0.4

From the NIST ThermoML archive (doi:10.1021/je300972a)
